Results: ChEMBL document CHEMBL4311972, “Discovery of a benzothiophene-flavonol halting miltefosine and antimonial drug resistance in Leishmania parasites through the application of medicinal chemistry, screening and genomics” (Eur J Med Chem, 2019)

Columns and labels:
[1] = Cytotoxicity against human THP1 cells by MTT assay; type: cell-based, THP-1
CYP2C9 = CYP2C9 (Homo sapiens, UniProt P11712); experiment: Inhibition of human microsomal CYP2C9 expressed in baculovirus infected insect cells at 10 uM using luciferin-H as substrate preincubated with enzyme/substrate mixture for 30 mins followed by further incubation with NADPH for 30 mins by CYP450 luciferase Glo assay relative to control; type: ADME; conditions: probe luciferin-H
786-0 = experiment: Mitochondrial toxicity in human 786-0 cells at 10 uM incubated with compound for 6 hrs followed by incubation with MitoTracker Red chloromethyl-X-rosamine dye for 45 mins by imaging analysis; type: cell-based; conditions: 786-0, 6 h
Leishmania infantum = experiment: Antileishmanial activity against luciferase expressing intracellular amastigote stage of Leishmania infantum infected in human THP1 cells assessed as parasite growth inhibition measured after 48 to 72 hrs by steady-glo luciferase assay; type: functional, organism-based
CYP2D6 = CYP2D6 (Homo sapiens, UniProt P10635); experiment: Inhibition of human microsomal CYP2D6 expressed in baculovirus infected insect cells at 10 uM using luciferin-ME as substrate preincubated with enzyme/substrate mixture for 30 mins followed by further incubation with NADPH for 30 mins by CYP450 luciferase Glo assay relative to control; type: ADME; conditions: probe luciferin-ME
CYP1A2 = target: T1, CYP1A2 (Homo sapiens, UniProt P05177); experiment: Inhibition of human microsomal CYP1A2 expressed in baculovirus infected insect cells at 10 uM using luciferin-1A2 as substrate preincubated with enzyme/substrate mixture for 30 mins followed by further incubation with NADPH for 30 mins by CYP450 luciferase Glo assay relative to control; type: ADME; conditions: probe luciferin-1A2
T1 sequence (P05177 whole entry): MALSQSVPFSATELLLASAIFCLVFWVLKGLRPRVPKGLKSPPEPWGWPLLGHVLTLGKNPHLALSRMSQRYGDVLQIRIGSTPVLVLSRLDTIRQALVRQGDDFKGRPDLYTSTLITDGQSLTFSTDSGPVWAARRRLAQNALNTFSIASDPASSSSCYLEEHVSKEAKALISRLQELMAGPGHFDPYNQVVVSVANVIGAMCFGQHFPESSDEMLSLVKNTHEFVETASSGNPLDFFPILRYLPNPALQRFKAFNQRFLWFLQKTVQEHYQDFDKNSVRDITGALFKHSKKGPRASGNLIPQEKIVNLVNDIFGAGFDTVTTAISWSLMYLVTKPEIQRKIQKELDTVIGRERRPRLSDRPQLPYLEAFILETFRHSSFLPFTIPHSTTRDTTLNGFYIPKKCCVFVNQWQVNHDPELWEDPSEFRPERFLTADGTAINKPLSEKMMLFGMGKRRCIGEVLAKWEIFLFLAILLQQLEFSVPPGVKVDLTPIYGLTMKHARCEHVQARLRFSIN

hERG (KCNH2) = hERG (KCNH2) (Homo sapiens, UniProt Q12809); experiment: Inhibition of human ERG at 10 uM incubated for 2 hrs by fluorescence polarization assay relative to control
CYP2C19 = CYP2C19 (Homo sapiens, UniProt P33261); experiment: Inhibition of human microsomal CYP2C19 expressed in baculovirus infected insect cells at 10 uM using luciferin-H EGE as substrate preincubated with enzyme/substrate mixture for 30 mins followed by further incubation with NADPH for 30 mins by CYP450 luciferase Glo assay relative to control; type: ADME; conditions: probe luciferin-H EGE
Trypanosoma brucei = experiment: Antitrypanosomal activity against Trypanosoma brucei bloodstream form assessed as parasite growth inhibition incubated for 72 hrs by resazurin dye based assay; type: functional, organism-based
[2] = Cytotoxicity against human A549 cells assessed as cell growth at […] incubated for 48 hrs by Celltiter-Glo luminescence assay relative to control; type: cell-based; set-up: dose or concentration left out as unconfirmed; conditions: read-out: Activity
CYP3A4 = CYP3A4 (Homo sapiens, UniProt P08684); experiment: Inhibition of human microsomal CYP3A4 expressed in baculovirus infected insect cells at 10 uM using luciferin-IPA as substrate preincubated with enzyme/substrate mixture for 30 mins followed by further incubation with NADPH for 30 mins by CYP450 luciferase Glo assay relative to control; type: ADME; conditions: probe luciferin-IPA
Chain of CYP3A4 (P08684 whole entry): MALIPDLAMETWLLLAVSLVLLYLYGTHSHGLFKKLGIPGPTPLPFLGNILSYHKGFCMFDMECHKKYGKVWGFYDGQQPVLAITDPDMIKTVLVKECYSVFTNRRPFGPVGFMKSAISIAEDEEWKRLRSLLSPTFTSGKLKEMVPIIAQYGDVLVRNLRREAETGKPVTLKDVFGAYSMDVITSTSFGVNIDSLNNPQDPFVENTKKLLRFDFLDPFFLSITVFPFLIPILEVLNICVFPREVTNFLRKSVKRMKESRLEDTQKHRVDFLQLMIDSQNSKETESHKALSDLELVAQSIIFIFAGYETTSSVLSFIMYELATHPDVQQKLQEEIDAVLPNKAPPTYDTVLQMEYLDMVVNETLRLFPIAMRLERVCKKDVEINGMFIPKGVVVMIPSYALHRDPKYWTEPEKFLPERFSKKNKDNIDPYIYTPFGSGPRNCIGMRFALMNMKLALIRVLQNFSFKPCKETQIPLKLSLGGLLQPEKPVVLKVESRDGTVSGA

Chain of CYP2C9 (P11712 whole entry): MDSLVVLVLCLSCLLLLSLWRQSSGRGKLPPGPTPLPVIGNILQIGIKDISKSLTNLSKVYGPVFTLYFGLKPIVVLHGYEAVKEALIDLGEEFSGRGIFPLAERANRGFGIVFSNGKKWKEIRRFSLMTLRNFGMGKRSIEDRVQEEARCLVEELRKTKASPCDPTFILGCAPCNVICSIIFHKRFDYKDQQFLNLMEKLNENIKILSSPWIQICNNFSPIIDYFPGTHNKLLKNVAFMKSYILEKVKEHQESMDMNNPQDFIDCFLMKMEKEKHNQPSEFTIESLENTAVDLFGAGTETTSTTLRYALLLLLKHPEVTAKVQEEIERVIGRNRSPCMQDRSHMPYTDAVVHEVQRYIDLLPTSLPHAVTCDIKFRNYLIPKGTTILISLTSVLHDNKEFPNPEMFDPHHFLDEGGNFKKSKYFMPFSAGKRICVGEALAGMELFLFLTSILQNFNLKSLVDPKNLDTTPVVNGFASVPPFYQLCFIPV
Chain of CYP2C19 (P33261 whole entry): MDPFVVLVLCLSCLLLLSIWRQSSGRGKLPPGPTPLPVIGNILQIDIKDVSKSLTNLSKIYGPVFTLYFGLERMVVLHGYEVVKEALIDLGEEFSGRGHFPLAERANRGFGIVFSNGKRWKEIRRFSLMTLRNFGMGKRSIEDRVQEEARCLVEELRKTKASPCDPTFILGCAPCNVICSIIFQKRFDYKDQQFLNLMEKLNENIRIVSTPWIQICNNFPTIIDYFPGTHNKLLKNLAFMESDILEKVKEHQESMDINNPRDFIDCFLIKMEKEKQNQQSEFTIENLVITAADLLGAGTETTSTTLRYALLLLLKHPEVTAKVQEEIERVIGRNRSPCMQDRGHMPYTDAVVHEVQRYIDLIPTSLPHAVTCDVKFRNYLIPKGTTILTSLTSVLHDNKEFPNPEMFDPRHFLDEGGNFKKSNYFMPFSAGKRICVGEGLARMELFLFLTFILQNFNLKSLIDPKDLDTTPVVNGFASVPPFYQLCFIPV
Chain of hERG (KCNH2) (Q12809 whole entry): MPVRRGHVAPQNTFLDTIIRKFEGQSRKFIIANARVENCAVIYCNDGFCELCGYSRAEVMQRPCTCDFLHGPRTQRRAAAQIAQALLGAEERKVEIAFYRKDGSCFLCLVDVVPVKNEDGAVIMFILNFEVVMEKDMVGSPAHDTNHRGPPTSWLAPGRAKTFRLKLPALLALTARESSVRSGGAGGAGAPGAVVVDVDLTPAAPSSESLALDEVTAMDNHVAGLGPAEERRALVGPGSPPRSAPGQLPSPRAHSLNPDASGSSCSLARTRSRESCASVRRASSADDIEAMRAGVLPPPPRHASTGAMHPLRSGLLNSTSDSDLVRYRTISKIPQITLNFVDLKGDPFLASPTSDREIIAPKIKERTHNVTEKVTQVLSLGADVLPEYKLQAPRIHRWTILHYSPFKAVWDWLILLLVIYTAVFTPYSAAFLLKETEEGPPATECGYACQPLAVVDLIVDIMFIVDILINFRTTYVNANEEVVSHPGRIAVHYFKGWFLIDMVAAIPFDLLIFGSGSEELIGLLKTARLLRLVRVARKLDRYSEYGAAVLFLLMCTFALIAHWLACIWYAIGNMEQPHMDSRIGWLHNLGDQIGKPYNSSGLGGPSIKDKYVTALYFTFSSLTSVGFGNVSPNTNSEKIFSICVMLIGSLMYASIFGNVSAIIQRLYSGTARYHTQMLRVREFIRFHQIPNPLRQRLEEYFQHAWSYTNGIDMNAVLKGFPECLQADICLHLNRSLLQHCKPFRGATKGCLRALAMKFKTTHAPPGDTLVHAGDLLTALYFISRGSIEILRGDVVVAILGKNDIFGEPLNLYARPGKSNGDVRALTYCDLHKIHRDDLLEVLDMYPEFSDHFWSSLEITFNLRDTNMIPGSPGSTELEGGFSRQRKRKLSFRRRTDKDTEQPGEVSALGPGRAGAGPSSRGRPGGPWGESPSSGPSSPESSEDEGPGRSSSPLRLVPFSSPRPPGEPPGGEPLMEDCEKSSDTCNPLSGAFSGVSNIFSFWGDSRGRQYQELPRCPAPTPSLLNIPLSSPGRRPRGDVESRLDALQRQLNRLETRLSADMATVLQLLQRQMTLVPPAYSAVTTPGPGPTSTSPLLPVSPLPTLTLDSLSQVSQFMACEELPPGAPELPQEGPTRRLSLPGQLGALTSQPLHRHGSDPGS
Chain of CYP2D6 (P10635 whole entry): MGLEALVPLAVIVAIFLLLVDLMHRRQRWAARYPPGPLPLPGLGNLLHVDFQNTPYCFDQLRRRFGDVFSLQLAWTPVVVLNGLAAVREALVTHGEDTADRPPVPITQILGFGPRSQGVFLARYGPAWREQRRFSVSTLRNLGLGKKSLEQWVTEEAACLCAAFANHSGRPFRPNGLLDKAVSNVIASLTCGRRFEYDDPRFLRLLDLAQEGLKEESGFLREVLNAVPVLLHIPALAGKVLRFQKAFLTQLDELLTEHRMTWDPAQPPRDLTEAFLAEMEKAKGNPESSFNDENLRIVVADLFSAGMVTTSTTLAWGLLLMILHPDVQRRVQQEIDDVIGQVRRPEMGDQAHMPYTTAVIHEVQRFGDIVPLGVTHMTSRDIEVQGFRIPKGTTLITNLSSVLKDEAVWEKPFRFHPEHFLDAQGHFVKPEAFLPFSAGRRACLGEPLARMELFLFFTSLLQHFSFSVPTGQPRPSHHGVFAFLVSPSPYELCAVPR

| inhibition at 0.5 h, 10 µM (CYP2C9) | inhibition at 0.5 h, 10 µM (CYP2D6) | inhibition at 0.5 h, 10 µM (CYP1A2) | inhibition at 0.5 h, 10 µM (CYP2C19) | EC50 (Trypanosoma brucei; Trypanosoma brucei, 72 h, read-out: EC50) | inhibition at 0.5 h, 10 µM (CYP3A4) | EC50 (Trypanosoma brucei) | Compound | CC50 [1] | Activity (786-0) | EC50 (Leishmania infantum) | inhibition at 2 h, 10 µM (hERG (KCNH2)) | viability at 48 h [2] |
| --- | --- | --- | --- | --- | --- | --- | --- | --- | --- | --- | --- | --- |
| 33.6% | 11.8% | 51.6% | 31.8% | 3.7 µM | 50.1% |  | COc1ccc2oc(-c3csc4ccccc34)c(OC(=O)C(C)(C)C)c(=O)c2c1 | 12.5 to 25 µM | -47.48% | Not Active | -23.8% | 133% |
| 43.8% | 24.1% | 108% | 57.9% |  | 73.8% | Not Active | Cc1ccsc1-c1oc2cc(O)ccc2c(=O)c1O | 12.5 to 20 µM | -3.38% |  | -1.79% | 83.4% |
| 47.6% | 36.2% | 96.7% | 73.2% |  | 7.49% | Not Active | O=c1c(O)c(-c2ccco2)oc2ccc(O)cc12 | 20 to 50 µM | 4.3% |  | 6.43% | 104% |
| 26.5% | 23% | 80.6% | 24.2% |  | 9.54% |  | O=c1c(O)c(-c2csc3ccccc23)oc2cc(F)ccc12 | 25 to 50 µM | -22.29% | Not Active | 11.6% | 124% |
| 71.8% | 10.9% | 106% | 27.3% |  | 6.11% | Not Active | Cc1csc(-c2oc3cccc(O)c3c(=O)c2O)c1 | > 100 µM | 5.8% |  | 34.2% | 56.8% |
| 71.3% | 50.8% | 104% | 54.3% |  | 14.1% | Not Active | COc1ccc2oc(-c3ccco3)c(O)c(=O)c2c1 | 50 to 100 µM | -0.99% |  | -1.31% | 106% |
| 46.3% | 23.4% | 103% | 68.7% |  | -0.65% | Not Active | COc1ccc2c(=O)c(O)c(-c3ccco3)oc2c1 | > 100 µM | -1.6% |  | -3.37% | 102% |
| -0.02% | 3.57% | 89.2% | -1.53% |  | 22% |  | COc1ccc2oc(-c3cn(C)c4ccccc34)c(O)c(=O)c2c1 |  | -1.87% |  | 12.7% | 18.6% |
| 83.7% | 28.4% | 93.5% | 65.4% |  | 14.1% | Not Active | O=c1c(O)c(-c2ccco2)oc2cc(O)ccc12 | > 100 µM | -1.18% |  | 18.7% | 108% |
| -3.36% | -15.1% | 27.4% | -8.24% |  | -3.86% | Not Active | COc1ccc2oc(-c3ccc4ncccc4c3)c(O)c(=O)c2c1 | > 100 µM | -7.05% |  | 16.1% | 101% |
